The term EC50 denotes the midpoint of the concentration-response curve.

Test [1] deals with Influenza A virus. It counts as functional, organism-based.
The test system of test [2] is Influenza A virus. Description: microbe, parasite or virus in culture. As to conditions: A/WSN/1933(H1N1), MDCK, 72 h. It counts as functional, organism-based.

As to `CC(C)N1CN(C(c2ccccc2)c2ccccc2)n2ccc(=O)c(O)c2C1=O`, the results for the EC50 in the test on Influenza A virus [1] and in the test with Influenza A virus [2] were 80.4 nM and 165 nM, respectively.
For `CC(C)N1C[C@H](C(c2ccccc2)c2ccccc2)n2ccc(=O)c(O)c2C1=O` the same measures were 89.2 nM and 155 nM.

Values taken from ChEMBL document CHEMBL4334467, “Synthesis and SAR Study of Carbamoyl Pyridone Bicycle Derivatives as Potent Inhibitors of Influenza Cap-dependent Endonuclease” (J Med Chem, 2019).
